According to patent publication US12305171B2, “Compositions and methods for treating cancer” (bioAffinity Technologies, Inc., priority 2018, dated 2025):
Like-named read-outs stand apart in the source and are kept apart here.

Tests used:
[1] = system: MDA-MB-435S; test: functional siRNA cell proliferation assay (CTG assay, microscopy); assay type: cell-based, human; conditions: MDA-MB-435S (Melanoma); 5 txns; 10 days expt; n=4
Source text: (§1) FIGS. 10 A-E illustrate graphs of the effects of siCD320 and siLRP2 on cell proliferation—Cell lines representative of several types of cancers (breast, prostate, skin) were transfected with individual or combinations of siRNAs targeting CD320 (OSC17, OSC47) or LRP2 (05L231, OSL245) as indicated. Cells were repeatedly transfected as outlined in Table 9 for efficient toxicity, then assayed for viability by the CTG assay. Doxorubicin-treated cells served as a positive control for cell toxicity in our assays (Table 8).
(§2) FIGS. 16 A-D illustrate plated cells showing the effects of siCD320 and siLRP2 on four cell lines. Cell lines representative of four types of cancers (breast, two prostate, skin) were transfected with siRNAs targeting CD320 (OSC17) or LRP2 (05L245) individually at 20 nM or in combination (10 nM each) or a negative control siRNA (OSS2) (20 nM) as indicated. Cells were repeatedly transfected for efficient toxicity as in Table 9 and then analyzed by microscopy as indicated.
(§3) Referring now to FIG. 16, treatment of breast, prostate, and skin cancer cells with an inhibitor of CD320 receptor or an inhibitor of LRP2 receptor or a combination of both in an amount effective to inhibit proliferation of the cancer cells as compared to the control cells treated with control siRNA is illustrated. […]

[2] = system: MDA-MB-231; test: as above; assay type: cell-based; conditions: MDA-MB-231 (Breast); 4 txns; 11 days expt; n=6
Source text: as §1
FIGS. 11A-B illustrate the effects of siCD320 and siLRP2 molar proportions on cell proliferation with different molar proportions of siRNA targeting CD320 and siRNA targeting LRP2. Cell lines representative of two types of cancers (breast, prostate) were transfected with different proportions of siRNAs targeting CD320 (OSC17) or LRP2 (05L245) (0-20 nM) or a negative control siRNA (OSS2) as indicated. […]
FIGS. 16 A-D illustrate plated cells showing the effects of siCD320 and siLRP2 on four cell lines. […] Cells were repeatedly transfected for efficient toxicity as in Table 9 and then analyzed by microscopy as indicated.
Now, referring to FIG. 10B, MDA-MB-231 triple negative breast cancer cells were plated in a 24-well plate at 20,000 cells/well. […] At day 11, cells were analyzed for cell growth by the CTG assay. […]

[3] = system: LncAP; test: as above; assay type: cell-based; conditions: LnCAP (Prostate); 4 txns; 7 days expt; n=3
Source text: as §1, §2, §3

[4] = system: MCF-7; test: functional siRNA cell proliferation screening (CTG assay); assay type: cell-based; conditions: MCF-7 (Breast); 2 txns; 7 days expt; n=3
Description: as §1, with “9” for “10”, “percent cell survival” for “effects”, “(lung, brain) or normal fibroblasts” for “(breast, prostate, skin)”, “OSL245), individually at 20 nM or in combination (10 nM each), or a negative control siRNA (OSS2) (20 nM)” for “OSL245)”
as §1
(§4) Referring now to FIG. 16, treatment of breast, prostate, and skin cancer cells with an inhibitor of CD320 receptor or an inhibitor of LRP2 receptor or a combination of both in an amount effective to inhibit proliferation of the cancer cells as compared to the control cells treated with control siRNA is illustrated. MDA-MB-231, DU145, LnCAP, and MDA-MB-435S cells were plated at 20,000 cells per well in a 24-well plate. The next day, the cells were transected with 20 nM of indicated siRNAs to knock down CD320, LRP2, or scrambled control. For the combination of siRNAs, cells were treated with 10 nM of each siRNA for 20 nM total treatments. The indicated pictures of the cells were taken at the end of the experiment.

[5] = system: A172; test: as above; assay type: cell-based; conditions: A172 (Glioblastoma); 5 txns; 7 days expt; n=3
Description: as §1, with “9” for “10”, “percent cell survival” for “effects”, “(lung, brain) or normal fibroblasts” for “(breast, prostate, skin)”, “OSL245), individually at 20 nM or in combination (10 nM each), or a negative control siRNA (OSS2) (20 nM)” for “OSL245)”
as §1, §4

[6] = system: GM05659; test: as above; assay type: cell-based; conditions: GM05659 (Normal); 4 txns; 7 days expt; n=3
Description: as §1, with “9” for “10”, “percent cell survival” for “effects”, “(lung, brain) or normal fibroblasts” for “(breast, prostate, skin)”, “OSL245), individually at 20 nM or in combination (10 nM each), or a negative control siRNA (OSS2) (20 nM)” for “OSL245)”
as §1, §4

[7] = system: H157; test: as above; assay type: cell-based; conditions: H157 (Lung); 5 txns; 8 days expt; n=3
Description: as §1, with “9” for “10”, “percent cell survival” for “effects”, “(lung, brain) or normal fibroblasts” for “(breast, prostate, skin)”, “OSL245), individually at 20 nM or in combination (10 nM each), or a negative control siRNA (OSS2) (20 nM)” for “OSL245)”
as §1, §4

[8] = system: U251; test: as above; assay type: cell-based; conditions: U251 (Glioblastoma); 6 txns; 8 days expt; n=4
Description: as §1, with “9” for “10”, “percent cell survival” for “effects”, “(lung, brain) or normal fibroblasts” for “(breast, prostate, skin)”, “OSL245), individually at 20 nM or in combination (10 nM each), or a negative control siRNA (OSS2) (20 nM)” for “OSL245)”
as §1, §4

[9] = system: HCC15; test: as above; assay type: cell-based; conditions: HCC15 (Lung); 2 txns; 7 days expt; n=3
Description: as §1, with “9” for “10”, “percent cell survival” for “effects”, “(lung, brain) or normal fibroblasts” for “(breast, prostate, skin)”, “OSL245), individually at 20 nM or in combination (10 nM each), or a negative control siRNA (OSS2) (20 nM)” for “OSL245)”
as §1, §4

[10] = system: DU145; test: functional siRNA cell proliferation assay (CTG assay, microscopy); assay type: cell-based; conditions: DU-145 (Prostate); 4 txns; 7 days expt; n=6
Source text: as §1
FIGS. 11A-B illustrate the effects of siCD320 and siLRP2 molar proportions on cell proliferation with different molar proportions of siRNA targeting CD320 and siRNA targeting LRP2. Cell lines representative of two types of cancers (breast, prostate) were transfected with different proportions of siRNAs targeting CD320 (OSC17) or LRP2 (05L245) (0-20 nM) or a negative control siRNA (OSS2) as indicated. Cells were repeatedly transfected for efficient toxicity then assayed for viability by the CTG assay. Doxorubicin-treated cells served as a positive control for cell toxicity in our assays (Table 8).
FIGS. 16 A-D illustrate plated cells showing the effects of siCD320 and siLRP2 on four cell lines. […] Cells were repeatedly transfected for efficient toxicity as in Table 9 and then analyzed by microscopy as indicated. […]

[11] = system: A172; test: doxorubicin cell viability, CTG assay; assay type: cell-based; conditions: Homo sapiens, A 172, 96 h
Description: (§5) A172 and HCC15 cells were plated at 1200 cells/well in a 96 well plate. The next day, cells were treated with doxorubicin at the indicated concentrations. Four days after doxorubicin treatment was initiated, the cells were assayed for viability using the CTG assay. The dashed line indicates the non-linear fitting of the data to calculate an IC50 value.
(§6) A172 and HCC15 cells were plated at 1200 cells/well in a 96 well plate. The next day, cells were treated with doxorubicin at the indicated concentrations. Four days after the doxorubicin exposure was initiated, the cells were assayed for viability using the CTG assay. […] After incubating the cells with the CTG reagent, ATP levels can be indirectly measured as light production using the TECAN luminescence plate reader. As a first step, toxicity of a known chemotherapeutic drug, doxorubicin, was assayed on the cell lines of interest. Doxorubicin was used as a positive control for cell toxicity in our assay.
(§7) The cells lines were plated at 1,000 to 4,000 cells/well in a 96-well plate and treated with doxorubicin the following day. CTG activity was measured 4 days after treatment. IC50 values were calculated by GraphPad Prism Software.

[12] = system: HCC15; test: doxorubicin cell viability, CTG assay; assay type: cell-based; conditions: 96 h
Description: as §5, §6, §7

[13] = system: MDA-MB-435S; test: doxorubicin cell viability, CTG assay; assay type: cell-based; conditions: Homo sapiens, 96 h, Melanoma, CTG 4 days after treatment
Description: as §6, §7

[14] = system: HEK293; test: doxorubicin cell viability, CTG assay; assay type: cell-based; conditions: Homo sapiens, 96 h; HEK293, Other; CTG 4 days after treatment
Description: as §6, §7

[15] = system: PC3; test: doxorubicin cell viability, CTG assay; assay type: cell-based; conditions: Homo sapiens, PC-3, 96 h; PC3, Prostate; CTG 4 days after treatment
Description: as §6, §7

[16] = system: NCI-H460; test: doxorubicin cell viability, CTG assay; assay type: cell-based; conditions: Homo sapiens, 96 h; NCI-H460, Lung; CTG 4 days after treatment
Description: as §6, §7

[17] = system: GM05659; test: doxorubicin cell viability, CTG assay; assay type: cell-based; conditions: 96 h; GM05659, Other; CTG 4 days after treatment
Description: as §6, §7

[18] = system: DU145; test: doxorubicin cell viability, CTG assay; assay type: cell-based; conditions: Homo sapiens, DU-145, 96 h; DU145, Prostate; CTG 4 days after treatment
Description: as §6, §7

[19] = system: U251; test: doxorubicin cell viability, CTG assay; assay type: cell-based; conditions: Homo sapiens, U-251, 96 h; U251, Glioblastoma; CTG 4 days after treatment
Description: as §6, §7

SMILES: COc1cccc2c1C(=O)c1c(O)c3c(c(O)c1C2=O)C[C@@](O)(C(=O)CO)C[C@@H]3O[C@H]1C[C@H](N)[C@H](O)[C@H](C)O1 [DOX]
- percent survival compared to negative control OSS2 [1]: 51%
- percent survival compared to negative control OSS2 [2]: 7%
- percent survival compared to negative control OSS2 [3]: 38%
- percent survival compared to negative control OSS2 [4]: 5%
- percent survival compared to negative control OSS2 [5]: 8%
- percent survival compared to negative control OSS2 [6]: 39%
- percent survival compared to negative control OSS2 [7]: 20%
- percent survival compared to negative control OSS2 [8]: 51%
- percent survival compared to negative control OSS2 [9]: 2%
- percent survival compared to negative control OSS2 [10]: 40%

SMILES: COc1cccc2c1C(=O)c1c(O)c3c(c(O)c1C2=O)C[C@@](O)(C(=O)CO)C[C@@H]3O[C@H]1C[C@H](N)[C@H](O)[C@H](C)O1 [doxorubicin]
- IC50 ([11]; A172, Glioblastoma, CTG 4 days after treatment, read-out: IC50): 132 nM
- IC50 ([11]; A172 cells, CTG four days after exposure, read-out: IC50 of doxorubicin treatment): 132 nM
- IC50 ([12]; HCC15, Lung, CTG 4 days after treatment, read-out: IC50): 167 nM
- IC50 ([12]; HCC15 cells, CTG four days after exposure, read-out: IC50 of doxorubicin treatment): 167 nM
- IC50 [13]: 325 nM
- IC50 [14]: 29 nM
- IC50 [15]: 387 nM
- IC50 [16]: 56 nM
- IC50 [17]: 267 nM
- IC50 [18]: 248 nM
- IC50 [19]: 24 nM
